What was measured:
Format in all cases: cell-based
[1] = target: T1, LPA receptor LPAR5 (Homo sapiens, UniProt Q9H1C0); assay: Aggregation assay for washed human blood platelets (LPA-induced); conditions: reduction of the maximal aggregation, 5 minutes incubation at 37° C.
Procedure: A) Aggregation Assay for Washed Human Blood Platelets (Thrombocytes)
Whole blood was collected from healthy volunteers using 3×20 ml syringes containing each 1/10 volume of buffered citrate. The anticoagulated whole blood was transferred into 50 ml polypropylene conical tubes (30 ml per tube). The tubes were centrifuged for 10 minutes at 150×g at room temperature without using the centrifuge brake. This procedure results in a lower phase of cellular components and a supernatant (upper phase) of platelet rich plasma (PRP). The PRP phase was collected from each tube and pooled for each donor. To avoid carry over of cellular components following first centrifugation, approximately 5 ml of PRP was left in the tube. The platelet concentration was determined using a ABX Micros 60 counter. The PRP phase was transferred to a new 50 ml tube. After 10 minutes standing at room temperature, 1 μl PGI2 (1 mM in Tris-HCl/pH 8.8) and 180 μl ACD/A were added per ml PRP. The PRP was then transferred to new 10 ml tube and centrifuged for 10 minutes at 500×g. After centrifugation a cellular pellet is visible at the bottom of the tube. The supernatant was carefully discarded and the cellular pellet, consisting of human blood platelets was then dissolved in 10 ml buffer T (buffer T composition: 145 mM NaCl, 5 mM KCl, 0.1 mM MgCl2×6 H2O, 15 mM HEPES, 5.5 mM glucose, pH 7.4). Platelet concentration in this solution was determined and buffer T was added to obtain a final concentration of 3.5×10^5 platelets per ml.
After 10 minutes at room temperature, 1 μl PGI2 per ml platelet solution was added and distributed into new 10 ml tubes. After a centrifugation step, 10 minutes at 500×g, supernatant was discarded and the platelets were resuspended in buffer T to a final concentration of 3.5×10^5 platelets per ml buffer T. Before use, platelet-containing buffer equilibrated for 30 minutes at room temperature. The human platelet aggregation assay was performed in single use cuvettes using the Platelet Aggregation Profiler® (PAP-4 or -8E, BIO/DATA Corporation). For a single experiment, 320 μl of platelet solution were transferred into an assay cuvette, 20 μl of calcium citrate solution (10 mM in H2O) and 20 μl of fibrinogen solution (20 mg/ml H2O) were added. The aggregation assay was performed in the assay cuvette at 37° C. and with 1.200 rpm stirring. To determine the EC50, eight assay cuvettes were loaded as described above with different concentrations of LPA. Aggregation was measured over 6 minutes at 37° C. with 1200 rpm (revolutions per minute) stirring. Results of the assay are expressed as % activation, and are calculated using maximum aggregation (Tmax) or area under curve (AUC) of the absorbance over 6 minutes. The inhibitory effect (IC50) of the test compounds was determined as the reduction of the maximal aggregation. Test compound was added prior starting the experiment with an incubation time of the test compound of 5 minutes at 37° C. with 1200 rpm stirring. The IC50 data of the above described platelet aggregation assay using human washed platelets for exemplary compounds of the present invention are shown in Table 1.

[2] = target: T2, LPA receptor LPAR5 (Mus musculus, UniProt Q149R9); assay: FLIPR assay, intracellular Ca2+ release in murine microglia cell line BV-2; conditions: murine microglia cell line BV-2, LPA-stimulated Ca2+ release, test compounds added 10 minutes prior LPA
T2 construct: two cell lines were used with high LPAR5 expression; endogenous in cells; host or cells: BV-2 murine microglia cell line
From the text: (§1) B) Use of the Fluorometric Imaging Plate Reader (FLIPR) Assay for the Determination of Intracellular Ca^2+ Release in Human Mast Cell Line HMC-1 and the Murine Microglia Cell Line BV-2
(§2) The ability of the compounds of the formula I to inhibit or bind the LPA receptor LPAR5 can be assessed by determining the intracellular Ca^2+ release in human or animal cells. For the analysis of activating potential of LPA and the inhibitory effects of compounds of the formula I two cell lines were used with high LPAR5 expression, the human mast cell line HMC-1 and the murine microglia cell line BV-2 (Figures 1 and 2). For the FLIPR assay using human mast cells in a 96-well-format, HMC-1 suspension cells from flask culture were harvested, resuspended and counted. 14×10^6 HMC-1 cells were transferred into a new 50 ml tube, centrifuged for 3 minutes at 540×g. The resulting cell pellet at the bottom of the tube was resuspended with 15 ml loading buffer (loading buffer contained HBSS buffer (pH 7.4), 0.1% BSA (bovine serum albumin), 2 μM FLUO-4 dye; HBSS buffer (pH 7.4) contained 1×HBSS, 20 mM HEPES, 0.01% Pluronic F-127, 2.5 mM Probenicid).
Cells in loading buffer were incubated for 45-60 minutes at 37° C. After incubation cells were centrifuged for 3 minutes at 540×g and resuspended with 21 ml of HBSS buffer (pH 7.4). Each well of a poly-D-lysine coated 96-well-plate was filled with 150 μl cell solution, an equivalent of 100 000 cells/well. The 96-well-plate was centrifuged for 2 minutes at 100×g (without brake) prior a recovery time of 30 minutes at 37° C. After this procedure cells were stimulated with LPA (in HBSS pH 7.4 and 0.1% BSA) to determine the EC50 of LPA in HMC-1 cells. For the determination of the inhibitory effect of compounds of the formula I, test compounds were added to the cells in the 96-well-plate 10 minutes prior the addition of LPA. Results of the assay are expressed as % activation, and are calculated using maximum peak of activation (Amax). […]

[3] = target: T1, LPA receptor LPAR5; assay: FLIPR assay, intracellular Ca2+ release in human mast cell line HMC-1; parameters: two cell lines were used with high LPAR5 expression; endogenous in cells; host or cells: HMC-1 human mast cell line; conditions: human mast cell line HMC-1, LPA-stimulated Ca2+ release, test compounds added 10 minutes prior LPA
From the text: as §1, §2
Cells in loading buffer were incubated for 45-60 minutes at 37° C. After incubation cells were centrifuged for 3 minutes at 540×g and resuspended with 21 ml of HBSS buffer (pH 7.4). Each well of a poly-D-lysine coated 96-well-plate was filled with 150 μl cell solution, an equivalent of 100 000 cells/well. The 96-well-plate was centrifuged for 2 minutes at 100×g (without brake) prior a recovery time of 30 minutes at 37° C. After this procedure cells were stimulated with LPA (in HBSS pH 7.4 and 0.1% BSA) to determine the EC50 of LPA in HMC-1 cells. For the determination of the inhibitory effect of compounds of the formula I, test compounds were added to the cells in the 96-well-plate 10 minutes prior the addition of LPA. Results of the assay are expressed as % activation, and are calculated using maximum peak of activation (Amax). The IC50 data of the above described FLIPR assay using human mast cell line HMC-1 for exemplary compounds of the present invention are shown in Table 2. Adherent BV-2 cells were seeded onto poly-D-lysine coated 96-well-plates (100000 cells/well) the day before performing the FLIPR assay. The density of the cells in the 96-well-plate at the day of the FLIPR assay should be 90%. After aspiration of the culture media, BV-2 cells were incubated for 30 minutes at 37° C. with loading buffer and recovered in 150 μl HBSS buffer for 30 minutes at 37° C. After this procedure cells were stimulated with LPA (in HBSS pH 7.4 and 0.1% BSA) to determine the EC50 of LPA in BV-2 cells. For the determination of the inhibitory effect of compounds of the formula I, test compounds were added to the cells in the 96-well-plate 10 minutes prior the addition of LPA. The IC50 data of the above described FLIPR assay using the murine microglia cell line BV-2 for exemplary compounds of the present invention are shown in Table 3.

T2 sequence (Q149R9 whole entry): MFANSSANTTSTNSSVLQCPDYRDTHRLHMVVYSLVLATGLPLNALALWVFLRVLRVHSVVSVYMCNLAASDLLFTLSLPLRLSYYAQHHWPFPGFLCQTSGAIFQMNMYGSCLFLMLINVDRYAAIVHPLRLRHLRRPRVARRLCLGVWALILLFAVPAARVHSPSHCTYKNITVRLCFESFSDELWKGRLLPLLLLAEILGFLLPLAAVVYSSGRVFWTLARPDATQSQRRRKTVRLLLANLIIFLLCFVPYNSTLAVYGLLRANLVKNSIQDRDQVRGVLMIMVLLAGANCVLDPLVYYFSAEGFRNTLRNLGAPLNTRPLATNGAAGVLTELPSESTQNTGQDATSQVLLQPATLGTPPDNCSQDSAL
T1 sequence (Q9H1C0 whole entry): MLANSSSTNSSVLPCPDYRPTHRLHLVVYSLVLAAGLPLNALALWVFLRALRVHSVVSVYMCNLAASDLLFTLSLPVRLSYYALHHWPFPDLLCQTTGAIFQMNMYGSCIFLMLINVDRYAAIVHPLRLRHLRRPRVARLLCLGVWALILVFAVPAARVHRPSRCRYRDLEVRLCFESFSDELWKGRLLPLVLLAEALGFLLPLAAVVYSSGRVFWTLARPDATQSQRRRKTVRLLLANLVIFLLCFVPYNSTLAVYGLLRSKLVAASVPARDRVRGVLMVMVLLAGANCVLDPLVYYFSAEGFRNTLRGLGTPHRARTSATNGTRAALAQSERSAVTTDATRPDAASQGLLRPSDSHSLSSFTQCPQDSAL

Work on `O=C(O)C1Oc2ccc(Cl)cc2C(C2CCCCC2)(C2CCCCC2)O1` (centres unmarked) [Example 1, 6-Chloro-4,4-dicyclohexyl-4H-benzo[1,3]dioxine-2-carboxylic acid] yielded an IC50 [1] of 1.1 µM, an IC50 [2] of 4.1 µM and an IC50 [3] of 3.2 µM.

Work on `O=C(O)C1Oc2cc(-n3cccc3)ccc2C(C2CCCCC2)(C2CCCCC2)O1` (centres unmarked) [Example 2, 4,4-Dicyclohexyl-7-pyrrol-1-yl-4H-benzo[1,3]dioxine-2-carboxylic acid] yielded an IC50 [3] of 3.4 µM.

For `COc1cc(OC)c2c(c1)OC(C(=O)O)OC2(C1CCCCC1)C1CCCCC1` (centres unmarked) [Example 7, 4,4-Dicyclohexyl-5,7-dimethoxy-4H-benzo[1,3]dioxine-2-carboxylic acid], the IC50 [3] was 4.4 µM.

`Cc1cccc2c1OC(C(=O)O)OC2(C1CCCCC1)C1CCCCC1` (centres unmarked) [Example 12, 4,4-Dicyclohexyl-8-methyl-4H-benzo[1,3]dioxine-2-carboxylic acid] showed an IC50 [2] of 8 µM.

For `O=C(O)C1Oc2ccc(OC(F)(F)F)cc2C(C2CCCCC2)(C2CCCCC2)O1` (centres unmarked) [Example 18, 4,4-Dicyclohexyl-6-trifluoromethoxy-4H-benzo[1,3]dioxine-2-carboxylic acid], the IC50 [2] was 1.5 µM and the IC50 [3] was 1.5 µM.

`O=C(O)C1Oc2ccc(Oc3ccc(Cl)cc3)cc2C(C2CCCCC2)(C2CCCCC2)O1` (centres unmarked) [Example 22, 6-(4-Chloro-phenoxy)-4,4-dicyclohexyl-4H-benzo[1,3]dioxine-2-carboxylic acid] was tested, and the IC50 [3] was 2.6 µM.

`O=C(c1ccc(Cl)cc1)c1ccc2c(c1)C(C1CCCCC1)(C1CCCCC1)OC(C(=O)O)O2` (centres unmarked) [Example 26, 6-(4-Chloro-benzoyl)-4,4-dicyclohexyl-4H-benzo[1,3]dioxine-2-carboxylic acid] was tested, and the IC50 [3] was 3.4 µM.

`CCOc1cccc2c1C(C1CCCCC1)(C1CCCCC1)OC(C(=O)O)O2` (centres unmarked) [Example 30, 4,4-Dicyclohexyl-5-ethoxy-4H-benzo[1,3]dioxine-2-carboxylic acid] showed an IC50 [1] of 5.9 µM.

`CCCCOc1ccc2c(c1)OC(C(=O)O)OC2(C1CCCCC1)C1CCCCC1` (centres unmarked) [Example 31, 7-Butoxy-4,4-dicyclohexyl-4H-benzo[1,3]dioxine-2-carboxylic acid] was tested, and the IC50 [3] was 5.2 µM.

`O=C(O)C1Oc2c(Cl)cc(Cl)cc2C(C2CCCCC2)(C2CCCCC2)O1` (centres unmarked) [Example 32, 6,8-Dichloro-4,4-dicyclohexyl-4H-benzo[1,3]dioxine-2-carboxylic acid] gave an IC50 [3] of 3.5 µM.

Work on `O=C(O)C1Oc2ccc3ccccc3c2C(C2CCCCC2)(C2CCCCC2)O1` (centres unmarked) [Example 33, 1,1-Dicyclohexyl-1H-naphtho[2,1-d][1,3]dioxine-3-carboxylic acid] yielded an IC50 [3] of 3.3 µM.

`O=C(O)C1Oc2ccc(-c3ccccc3)cc2C(C2CCCCC2)(C2CCCCC2)O1` (centres unmarked) [Example 35, 4,4-Dicyclohexyl-6-phenyl-4H-benzo[1,3]dioxine-2-carboxylic acid] gave an IC50 [3] of 3.8 µM.

For `COc1cc(C)c2c(c1)OC(C(=O)O)OC2(C1CCCCC1)C1CCCCC1` (centres unmarked) [Example 36, 4,4-Dicyclohexyl-7-methoxy-5-methyl-4H-benzo[1,3]dioxine-2-carboxylic acid], the IC50 [1] was 2.4 µM.

Work on `O=C(O)C1Oc2cc(OCc3ccccc3)ccc2C(C2CCCCC2)(C2CCCCC2)O1` (centres unmarked) [Example 37, 7-Benzyloxy-4,4-dicyclohexyl-4H-benzo[1,3]dioxine-2-carboxylic acid] yielded an IC50 [1] of 11.3 µM and an IC50 [3] of 3.6 µM.

In the case of `Cc1cc2c(cc1Cl)C(C1CCCCC1)(C1CCCCC1)OC(C(=O)O)O2` (centres unmarked) [Example 43, 6-Chloro-4,4-dicyclohexyl-7-methyl-4H-benzo[1,3]dioxine-2-carboxylic acid], the IC50 [3] is reported as 3.3 µM.

`O=C(O)C1Oc2ccc3c(c2C(C2CCCCC2)(C2CCCCC2)O1)CCCC3` (centres unmarked) [Example 45, 1,1-Dicyclohexyl-7,8,9,10-tetrahydro-1H-naphtho[2,1-d][1,3]dioxine-3-carboxylic acid] gave an IC50 [3] of 3.1 µM.

`O=C(O)C1Oc2c(OC(F)(F)F)cccc2C(C2CCCCC2)(C2CCCCC2)O1` (centres unmarked) [Example 46, 4,4-Dicyclohexyl-8-trifluoromethoxy-4H-benzo[1,3]dioxine-2-carboxylic acid] gave an IC50 [1] of 5.4 µM and an IC50 [3] of 3.2 µM.

In the case of `CCN(CC)c1ccc2c(c1)OC(C(=O)O)OC2(C1CCCCC1)C1CCCCC1` (centres unmarked) [Example 49, 4,4-Dicyclohexyl-7-diethylamino-4H-benzo[1,3]dioxine-2-carboxylic acid], the IC50 [1] is reported as 2.7 µM and the IC50 [3] is reported as 3.6 µM.

`O=C(O)C1Oc2ccc(Br)cc2C(C2CCCCC2)(C2CCCCC2)O1` (centres unmarked) [Example 50, 6-Bromo-4,4-dicyclohexyl-4H-benzo[1,3]dioxine-2-carboxylic acid] showed an IC50 [3] of 2.5 µM.

`O=C(O)C1Oc2ccc(Cl)cc2C(C2CCCCCC2)(C2CCCCCC2)O1` (centres unmarked) [Example 55, 6-Chloro-4,4-dicycloheptyl-4H-benzo[1,3]dioxine-2-carboxylic acid] showed an IC50 [3] of 2.4 µM.

Work on `Clc1ccc2c(c1)C(C1CCCCC1)(C1CCCCC1)OC(c1nnn[nH]1)O2` (centres unmarked) [Example 60, 5-(6-Chloro-4,4-dicyclohexyl-4H-benzo[1,3]dioxin-2-yl)-1H-tetrazole] yielded an IC50 [3] of 3.6 µM.

In the case of `O=c1[nH]c(C2Oc3ccc(Cl)cc3C(C3CCCCC3)(C3CCCCC3)O2)no1` (centres unmarked) [Example 61, 3-(6-Chloro-4,4-dicyclohexyl-4H-benzo[1,3]dioxin-2-yl)-4H-[1,2,4]oxadiazol-5-one], the IC50 [3] is reported as 3.2 µM.

With `O=c1[nH]nc(C2Oc3ccc(Cl)cc3C(C3CCCCC3)(C3CCCCC3)O2)o1` (centres unmarked) [Example 63, 5-(6-Chloro-4,4-dicyclohexyl-4H-benzo[1,3]dioxin-2-yl)-3H-[1,3,4]oxadiazol-2-one] the IC50 [3] was 7.7 µM.

— US9221784B2, “Benzo[1,3]dioxine derivatives and their use as LPAR5 antagonists” (SANOFI, priority 2012, dated 2015)
